This is an account of results in patent US20030216571A1, “Tricyclic compounds” (priority 1999, published 2003).

The structures appear in SMILES notation.

The first data set concerns Leukotriene D4 induced respiratory constriction. Description: Leukotriene D4 induced respiratory constriction test. It counts as in vivo. The note with it: p.o. 1 hr before i.v. LTD4; anesthetized Hartley male guinea pigs; respiratory inner pressure. The protocol: Leukotriene D4 Induced Respiratory Constriction Test
Respiratory constriction was measured by modifying the method of Konzett and Rossler (Arch. Exp. Pathol. Pharmakol., 195, pp. 71-74 (1940)). Hartley male guinea pigs (400 to 500 g body weight, Nippon SLC Co.) were anesthetized with pentobarbital (50 mg/kg, s.c.), and a cannula was inserted into the trachea to carry out artificial ventilation with an artificial ventilator (manufactured by Harvard Co., Model 683). An inner pressure of the respiratory tract was measured by a differential pressure transducer (Nihon Koden, TP-603T) connected to the respiratory cannula and it is used as an index of respiratory constriction.
LTD4 (0.03, 0.06, 0.13, 0.25, 0.5, 1 and 2 μg/kg, Sigma Co.) was intravenously administered from a cannula inserted into the right jugular vein from a low dose with an interval of 5 minutes to cause a respiratory constriction reaction and an increased amount of a respiratory inner pressure was measured. Test compound was suspended in 0.5% sodium carboxymethyl cellulose aqueous solution, and orally administered 1 hour before administration of LTD4. Animals were fasted for 24 hours before administration of the Test compound.
A2=(Dose of Compound administered)/{(ED50 of group to which Compound was added)/(ED50 of control group)−1}
On to `O=C(O)CCSC1c2ccccc2COc2ccc(OCc3ccc4cc(F)c(Cl)cc4n3)cc21` (stereo not shown) [Compound A, 11-(2-carboxyethyl)thio-2-(7-chloro-6-fluoro-quinolin-2-yl)methoxy-6,11-dihydrodibenz[b,e]oxepine, reference compound], for which the “A2 (dose of Test compound required for shifting two-times the LTD4 dose-reaction curve of control group to higher dose side)” value turned out to be 16 µg/kg.

`O=C([O-])CCSC1c2ccccc2COc2ccc(/C=C/c3ccc4cc(F)c(Cl)cc4n3)cc21.[Na+]` (stereo not shown) [Example 2 (b), Sodium 3-{[2-[(E)-2-(7-chloro-6-fluoro-2-quinolinyl)ethenyl]-6,11-dihydrodibenz[b,e]oxepin-11-yl]thio}propionate]: the “A2 (dose of Test compound required for shifting two-times the LTD4 dose-reaction curve of control group to higher dose side)” value worked out at 1.7 µg/kg.

Tested on in the next data set: not given
Experiment: not given
Details: not given
Broadly, the melting point is the temperature, or range, at which the solid turns liquid. Molecule `O=S(=O)([O-])CCSC1c2ccccc2COc2ccc(/C=C/c3ccc4cc(F)c(F)cc4n3)cc21.[Na+]` (stereo not shown) yielded a melting point of 246 to 254 °C.

Turning to `N#Cc1cccc2c1COc1ccc(/C=C/c3ccc4cc(F)c(F)cc4n3)cc1C2SCCC(=O)O` (stereo not shown), the melting point was 261 to 264 °C (dec.).

`O=C(O)CCSC1c2cc(/C=C/c3ccc4cc(F)c(Cl)cc4n3)ccc2OCc2c(F)cccc21` (stereo not shown) showed a melting point of 238 to 241 °C.

Turning to `O=C(O)CC1(CSC2c3cc(/C=C/c4ccc5cc(F)c(Cl)cc5n4)ccc3OCc3c(F)cccc32)CC1` (stereo not shown), the melting point fell in the range of 237 to 239 °C.

In turn, `O=C([O-])CCSC1c2ccccc2COc2ccc(/C=C/c3ccc4ccc(F)cc4n3)cc21.[Na+]` (stereo not shown) showed a melting point of 160 to 163 °C.

As to `O=C([O-])CC1(CSC2c3ccccc3COc3ccc(/C=C/c4ccc5ccc(F)cc5n4)cc32)CC1.[Na+]` (stereo not shown), the melting point fell in the range of 149 to 152 °C.

The molecule `O=C(O)CCSC1c2ccccc2COc2ccc(/C=C/c3ccc4ccc(Cl)cc4n3)cc21` (stereo not shown) showed a melting point of 195 to 198 °C.

In the case of `O=C(O)CC1(CSC2c3ccccc3COc3ccc(/C=C/c4ccc5ccc(Cl)cc5n4)cc32)CC1` (stereo not shown), the melting point lay in the range of 204 to 206 °C.

Consider `O=C(O)CCSC1c2ccccc2COc2ccc(/C=C/c3ccc4c(n3)CCCC4)cc21` (stereo not shown), for which the melting point lay within 150 to 153 °C.

The molecule `O=C([O-])CC1(CSC2c3ccccc3COc3ccc(/C=C/c4ccc5c(n4)CCCC5)cc32)CC1.[Na+]` (stereo not shown) gave a melting point of 142 to 145 °C.

Consider `O=C([O-])CCSC1c2ccccc2COc2ccc(/C=C/c3cc(Cl)c4ccccc4n3)cc21.[Na+]` (stereo not shown), for which the melting point lay in the range of 140 to 142 °C.

Regarding `O=C([O-])CCSC1c2ccccc2COc2ccc(/C=C/c3ccc4c(F)cccc4n3)cc21.[Na+]` (stereo not shown), the melting point is 150 to 152 °C.

Molecule `O=C([O-])CC1(CSC2c3ccccc3COc3ccc(/C=C/c4ccc5c(F)cccc5n4)cc32)CC1.[Na+]` (stereo not shown) yielded a melting point of 142 to 144 °C.

`O=C([O-])CC1(CSC2c3ccccc3COc3ccc(/C=C/c4ccc5c(F)cc(F)cc5n4)cc32)CC1.[Na+]` (stereo not shown): the melting point is 149 to 152 °C.

For the molecule `O=C([O-])CCSC1c2ccccc2COc2ccc(/C=C/c3nc4cc(F)ccc4s3)cc21.[Na+]` (stereo not shown), the melting point is more than 300 °C.

As for `O=C([O-])CC1(CSC2c3ccccc3COc3ccc(/C=C/c4nc5cc(F)ccc5s4)cc32)CC1.[Na+]` (stereo not shown), the melting point lay in the range of 155 to 157 °C.

`O=C([O-])CCSC1c2ccccc2COc2ccc(/C=C/c3nc4cc(F)ccc4o3)cc21.[Na+]` (stereo not shown) gave a melting point of 247 to 250 °C.

On to `Cc1ccc(/C=C/c2ccc3c(c2)C(SCCC(=O)[O-])c2ccccc2CO3)nc1C(C)C.[Na+]` (stereo not shown), for which the melting point was 137 to 139 °C.

In the case of `O=C([O-])CCSC1c2ccccc2CSc2ccc(/C=C/c3ccc4cc(F)c(F)cc4n3)cc21.[Na+]` (stereo not shown), the melting point is 144 to 148 °C.

Take `O=C(CSC1c2ccccc2COc2ccc(/C=C/c3ccc4cc(F)c(F)cc4n3)cc21)NS(=O)(=O)C(F)(F)F.[Na]` (stereo not shown): the melting point is 182 to 186 °C.

As to `CS(=O)(=O)NC(=O)CCSC1c2ccccc2COc2ccc(/C=C/c3ccc4cc(F)c(F)cc4n3)cc21.[Na]` (stereo not shown), the melting point was 187 to 192 °C.

Turning to `COC(=O)c1ccc2c(c1)COc1ccc(/C=C/c3ccc4c(n3)CCCC4)cc1C2SCCC(=O)O` (stereo not shown), the melting point is 121 to 123 °C.

For `C[C@H](CSC1c2ccccc2CCc2ccc(/C=C/c3ccc4cc(F)c(F)cc4n3)cc21)C(=O)[O-].[Na+]` (stereo partly shown), the melting point lay in the range of 211 to 220 °C.

`O=C([O-])CCSC1c2ccc(F)cc2COc2ccc(/C=C/c3ccc4cc(F)c(F)cc4n3)cc21.[Na+]` (stereo not shown) yielded a melting point of 243 to 250 °C.

`O=C(O)CCSC1c2ccccc2COc2ccc(/C=C/c3ccc4cc(F)c(F)cc4n3)cc21` (stereo not shown) yielded a melting point of 213 to 216 °C.

Consider `O=C([O-])c1ccccc1SC1c2ccccc2COc2ccc(/C=C/c3ccc4cc(F)c(F)cc4n3)cc21.[Na+]` (stereo not shown) [Example 8 (b), Sodium 2-{[2-[(E)-2-(6,7-difluoro-2-quinolinyl)ethenyl]-6,11-dihydrodibenz[b,e]oxepin-11-yl]thio}benzoate], for which the melting point lay in the range of 183 to 186 °C.

For `O=C([O-])c1cccc(SC2c3ccccc3COc3ccc(/C=C/c4ccc5cc(F)c(F)cc5n4)cc32)c1.[Na+]` (stereo not shown) [Example 9 (b), Sodium 3-{[2-[(E)-2-(6,7-difluoro-2-quinolinyl)ethenyl]-6,11-dihydrodibenz[b,e]oxepin-11-yl]thio}benzoate], the melting point is 184 to 188 °C.

`O=C([O-])c1ccc(SC2c3ccccc3COc3ccc(/C=C/c4ccc5cc(F)c(F)cc5n4)cc32)cc1.[Na+]` (stereo not shown) [Example 10 (b), Sodium 4-{[2-[(E)-2-(6,7-difluoro-2-quinolinyl)ethenyl]-6,11-dihydrodibenz[b,e]oxepin-11-yl]thio}benzoate]: the melting point was 285 to 287 °C (dec.).

Molecule `C[C@@H](CSC1c2ccccc2COc2ccc(/C=C/c3ccc4c(n3)CCCC4)cc21)C(=O)[O-].[Na+]` (stereo partly drawn) [Example 26, Sodium 3-{[2-[(E)-2-(5,6,7,8-tetrahydro-2-quinolinyl)ethenyl]-6,11-dihydrodibenz[b,e]oxepin-11-yl]thio}-2-(R)-methylpropionate] showed a melting point of 168 to 173 °C.

`CC(C)(CC(=O)[O-])SC1c2ccccc2COc2ccc(/C=C/c3ccc4c(n3)CCCC4)cc21.[Na+]` (stereo not shown) [Example 27, Sodium 3-{[2-[(E)-2-(5,6,7,8-tetrahydro-2-quinolinyl)ethenyl]-6,11-dihydrodibenz[b,e]oxepin-11-yl]thio}-3-methylbutanoate]: the melting point was 168 to 175 °C.

As to `CCC(CSC1c2ccccc2COc2ccc(/C=C/c3ccc4cc(F)c(F)cc4n3)cc21)C(=O)[O-].[Na+]` (stereo not shown) [Example 45, Sodium 3-{[2-[(E)-2-(6,7-difluoro-2-quinolinyl)ethenyl]-6,11-dihydrodibenz[b,e]oxepin-11-yl]thio}-2-ethylpropionate], the melting point was 209 to 218 °C.

A further data set has as its target T1, Leukotriene D4 receptor (Cavia porcellus, UniProt Q2NNR5).
T1 construct: As a receptor sample, a lung cell membrane fraction from guinea pigs was used; from tissue; host or cells: lung membrane fraction of Hartley male guinea pigs
T1 sequence (Q2NNR5 1-340): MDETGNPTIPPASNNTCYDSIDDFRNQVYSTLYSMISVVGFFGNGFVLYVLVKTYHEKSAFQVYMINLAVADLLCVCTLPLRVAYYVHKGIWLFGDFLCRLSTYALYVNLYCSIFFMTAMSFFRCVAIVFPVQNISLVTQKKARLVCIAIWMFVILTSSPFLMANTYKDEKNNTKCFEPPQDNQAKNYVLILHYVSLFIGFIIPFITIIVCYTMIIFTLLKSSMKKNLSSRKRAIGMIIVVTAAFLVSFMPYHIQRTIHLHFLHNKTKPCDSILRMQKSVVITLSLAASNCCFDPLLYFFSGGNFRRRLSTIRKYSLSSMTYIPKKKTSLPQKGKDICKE
Description: Leukotriene D4 receptor binding test. Conditions: binding inhibition constant (Ki) vs [3H] LTD4 0.2 nM; lung cell membrane fraction from guinea pigs; 25° C. for 30 minutes; read-out: pKi value (converted). The protocol:
Leukotriene D4 Receptor Binding Test
As a receptor sample, a lung cell membrane fraction from guinea pigs was used. Preparation of the membrane fraction was carried out according to the method of Ahn et al. (Eur. J. Pharmacol., 127, 153-155 (1986)). Lungs of Hartley male guinea pigs (400 to 500 g body weight, Nippon SLC Co.) were extracted, and perfused with a physiological saline, and then, adding 10 mM of PIPES, 10 mM of MgCl2 and 10 mM of CaCl2 buffer (pH 7.5) to the lung tissue and the mixture was homogenized. This homogenate was centrifuged at 70,000 xg for 10 minutes to obtain a membrane fraction.
Leukotriene D4 (LTD4) recepter binding test was carried out according to the method of Aharony, et al. (J. Pharmacol. Expl.Ther., 243, 921-926 (1987)). To 0.42 mg of the receptor sample were added 10 mM of PIPES, 10 mM of MgCl2 and 10 mM of CaCl2 buffer (pH 7.5) to make the total amount of 480 μl, and 10 μl of [^3H] LTD4 (NEN Life Science Products Co.) and 10 μl of a Test compound in dimethylsulfoxide were added to the mixture, and the resulting mixture was incubated at 25° C. for 30 minutes. The mixtures thus incubated were filtered through a glass fiber filter (Whatman Co., GF/C) using cell harvester (Brandel Co., M-30R). The filter were washed with 10 mM of Tris. and 100 mM of NaCl buffer (pH 7.5), and 5 ml of a liquid scintillator (NACALAI TESQUE INC., clearsol I), and radioactivity was measured by a liquid scintillation analyzer (Packard Co., 2000CA). When a dissociation constant (Kd) of LTD4 was to be obtained, [^3H] LTD4 with 0.03 to 0.5 nM was used, and 1 μM of non-radioactive LTD4 was added. When a binding inhibition constant (Ki) of the Test compound is to be meaured, [^3H] LTD4 with 0.2 nM was used. Kd and Ki are calculated according to the method of Bennett et al. (Neurotransmitter Receptor Binding, 2nd ed., edited by H. I. Yamamura et al., pp. 61-89, Raven Press (1985)).
In the case of `O=C(O)CCSC1c2ccccc2COc2ccc(OCc3ccc4cc(F)c(Cl)cc4n3)cc21` (stereo not shown) [Compound A, 11-(2-carboxyethyl)thio-2-(7-chloro-6-fluoro-quinolin-2-yl)methoxy-6,11-dihydrodibenz[b,e]oxepine, reference compound], the Ki is 316 pM.

For `O=C([O-])CCSC1c2ccccc2COc2ccc(/C=C/c3ccc4cc(F)c(Cl)cc4n3)cc21.[Na+]` (stereo not shown) [Example 2 (b), Sodium 3-{[2-[(E)-2-(7-chloro-6-fluoro-2-quinolinyl)ethenyl]-6,11-dihydrodibenz[b,e]oxepin-11-yl]thio}propionate], the Ki was 316 pM.

Consider `C[C@@H](CSC1c2ccccc2COc2ccc(/C=C/c3ccc4c(n3)CCCC4)cc21)C(=O)[O-].[Na+]` (stereo partly drawn) [Example 26, Sodium 3-{[2-[(E)-2-(5,6,7,8-tetrahydro-2-quinolinyl)ethenyl]-6,11-dihydrodibenz[b,e]oxepin-11-yl]thio}-2-(R)-methylpropionate], for which the Ki was 316 pM.

On to `CCC(CSC1c2ccccc2COc2ccc(/C=C/c3ccc4cc(F)c(F)cc4n3)cc21)C(=O)[O-].[Na+]` (stereo not shown) [Example 45, Sodium 3-{[2-[(E)-2-(6,7-difluoro-2-quinolinyl)ethenyl]-6,11-dihydrodibenz[b,e]oxepin-11-yl]thio}-2-ethylpropionate], for which the Ki is 158 pM.
